Measured values as given in US10941399B2, “Methods and compositions for gene-specific demethylation by DNA methyltransferase (DNMT)-RNA interaction” (Beth Israel Deaconess Medical Center, Inc., priority 2011, dated 2021).

Target: DNMT1 (Homo sapiens, UniProt P26358)
Test: Nuclear RNA immunoprecipitation (RIP) with anti-DNMT1 antibody
Format: binding
Design: endogenous in cells; host or cells: HL-60 cells (nuclei); Similar results were obtained in U937 cells
Conditions: HL-60 cells
Protocol: Nuclear RNA immunoprecipitation (nRIP): nRIP performed as described by Ebralidze et al. (Science 303:383-387, 2004) with some modifications. Crosslinked nuclei were collected as follows: About 60×10^6 HL-60 cells were crosslinked with 1% formaldehyde (formaldehyde solution, freshly made 50 mM HEPES-KOH; 100 mM NaCl; 1 mM EDTA; 0.5 mM EGTA; 11% formaldehyde) for 10 minutes at room temperature. Crosslinking was halted by adding 1/10th volume of 2.66 M Glycine, kept for 5 minutes at room temperature and 10 minutes on ice. Cell pellets were washed twice with ice-cold PBS (freshly supplemented with 1 mM PMSF) and then resuspended in cell lysis buffer (volume=4 mL, 1× Buffer of 10 mM Tris pH 7.4; 10 mM NaCl; 0.5% NP-40, freshly supplemented with protease inhibitors (protease inhibitors cocktail: Roche Applied Science, Cat. No. 1836153, 1 tablet with 375 μL H2O; add as ×100), 1 mM PMSF, and 2 mM vanadyl complex (NEB)). Cells were incubated at 0° C. for 10-15 minutes and homogenized by Dounce (10 strokes pestle A and 40 strokes pestle B). Nuclei were recovered by centrifugation at 2,000 rpm for 10 minutes at 4° C. Nuclei were resuspended in 3 ml 1× Resuspension Buffer (50 mM HEPES-NaOH, pH 7.4; 10 mM MgCl2) supplemented with 1 mM PMSF and 2 mM vanadyl complex. […]

Chain of DNMT1 (P26358 whole entry): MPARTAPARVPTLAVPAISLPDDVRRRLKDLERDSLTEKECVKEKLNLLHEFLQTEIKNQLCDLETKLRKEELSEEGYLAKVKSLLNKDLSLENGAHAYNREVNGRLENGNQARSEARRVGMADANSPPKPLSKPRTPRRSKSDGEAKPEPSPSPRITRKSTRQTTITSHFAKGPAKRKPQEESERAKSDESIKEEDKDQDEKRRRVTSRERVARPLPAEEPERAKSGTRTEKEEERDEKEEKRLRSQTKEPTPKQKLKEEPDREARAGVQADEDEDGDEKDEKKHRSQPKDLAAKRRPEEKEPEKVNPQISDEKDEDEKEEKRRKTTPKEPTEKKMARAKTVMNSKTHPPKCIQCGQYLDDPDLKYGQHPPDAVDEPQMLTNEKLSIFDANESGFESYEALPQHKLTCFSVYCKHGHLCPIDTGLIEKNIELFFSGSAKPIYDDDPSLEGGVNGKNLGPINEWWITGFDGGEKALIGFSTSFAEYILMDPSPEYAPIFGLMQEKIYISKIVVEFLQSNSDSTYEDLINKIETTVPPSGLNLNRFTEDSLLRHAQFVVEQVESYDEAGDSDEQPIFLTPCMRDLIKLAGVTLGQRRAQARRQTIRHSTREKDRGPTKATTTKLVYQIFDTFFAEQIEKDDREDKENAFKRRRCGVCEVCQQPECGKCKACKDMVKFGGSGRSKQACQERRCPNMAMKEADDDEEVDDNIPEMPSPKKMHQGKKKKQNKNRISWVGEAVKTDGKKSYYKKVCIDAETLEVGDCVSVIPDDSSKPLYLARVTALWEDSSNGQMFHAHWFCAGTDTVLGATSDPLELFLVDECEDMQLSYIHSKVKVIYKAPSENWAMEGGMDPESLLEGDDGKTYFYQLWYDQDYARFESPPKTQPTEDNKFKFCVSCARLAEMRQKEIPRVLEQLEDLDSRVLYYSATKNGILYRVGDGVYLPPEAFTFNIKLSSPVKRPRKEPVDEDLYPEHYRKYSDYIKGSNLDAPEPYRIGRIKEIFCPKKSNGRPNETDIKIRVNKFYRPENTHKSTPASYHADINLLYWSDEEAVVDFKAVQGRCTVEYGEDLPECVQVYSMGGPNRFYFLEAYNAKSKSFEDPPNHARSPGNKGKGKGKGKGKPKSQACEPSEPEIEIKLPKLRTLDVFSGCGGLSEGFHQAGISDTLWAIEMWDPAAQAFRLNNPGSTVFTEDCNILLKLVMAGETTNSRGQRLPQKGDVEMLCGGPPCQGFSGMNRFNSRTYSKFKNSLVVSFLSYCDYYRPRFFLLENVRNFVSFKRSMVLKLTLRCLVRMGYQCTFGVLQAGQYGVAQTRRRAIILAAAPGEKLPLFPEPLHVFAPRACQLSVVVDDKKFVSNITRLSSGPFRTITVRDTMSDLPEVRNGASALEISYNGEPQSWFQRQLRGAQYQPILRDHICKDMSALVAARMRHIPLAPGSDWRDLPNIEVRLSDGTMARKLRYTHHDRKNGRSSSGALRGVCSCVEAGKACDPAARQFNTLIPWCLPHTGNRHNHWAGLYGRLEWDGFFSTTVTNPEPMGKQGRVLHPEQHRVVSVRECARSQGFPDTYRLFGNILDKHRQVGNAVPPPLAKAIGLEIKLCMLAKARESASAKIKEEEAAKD

ecRNA: endogenous ~5 kb non-polyadenylated nuclear extra-coding transcript of the C/EBPa locus (SEQ ID NO:8)
enrichment in DNMT1-RNA precipitates compared to IgG control: > 60 fold
